Assay results: patent US20230285442A1, “USE OF OLIGOCHITOSANS AND DERIVATIVES THEREOF FOR NEUTRALIZING VIRAL AGENTS” (priority 2020, published 2023)

What was measured:
Solubility in water = format: physicochemical
HIV-1 89.6 = assay: Anti-HIV activity in PBMC culture ex vivo, p24 in culture supernatants; format: cell-based, human; details: PBMCs infected with HIV-1 89.6, day 3 of the culture
Description: PBMCs were treated with NCD1 or not treated, followed by infection with HIV-1 89.6. Samples were pelleted on days 0, 2, and 3. Culture supernatants were assayed for p24 concentration. The assay was done in triplicate.
HIV p24 Assay: HIV-1 p24 ELISA was performed using HIV-1 p24 antigen capture assay according to manufacturer's protocol (Advanced BioSciences Laboratory).
To confirm the activity of the newly synthesized compounds in HIV infected human cells, peripheral blood mononuclear cells (PBMCs) from healthy humans were cultured and parallel assays with PBMCs treated with NCD1 and samples with no treatment were run, followed by infection with HIV-1 89.6. Samples were pelleted on days 0, 2, and 3. Culture supernatants were assayed for p24 concentration.

HIV-89.6 = assay: HIV binding in culture supernatant, total HIV RNA in supernatant; details: non-sulfated, unmodified oligochitosan
Description: The desired compound in PBS or DMSO was incubated with virus for 30 min and then centrifuged. Total RNA isolated from supernatant was quantified. The assay was done in triplicate.
Medium/blood samples. To ensure uniformity and reproducibility, standards with known viral copy numbers of HIV89.6 (NIH NIAID repository) were prepared. A known amount of virus was spiked into cell culture medium in ten-fold serial dilutions. HIV-1 RNA was extracted using the High Pure viral RNA kit (Ambion). Complementary DNA (cDNA) was synthesized with the SuperScript III cDNA Synthesis Kit (Invitrogen) and amplified and quantified using primers specific for HIV-1 LTR. Real-time PCR amplification was performed in a CFX96™ Real-Time system (Bio-Rad, Hercules, CA). […] HIV-1 specific amplicons were detected using SYBR Green (Bio-Rad). The number of HIV-1 RNA copies in each test template was measured by its threshold cycle (Ct) as determined from the curve of serially diluted standards using data analysis software (Bio-Rad CFX Manager). […] Quantification of HIV-1 RNA in each test sample was back calculated and viral load was expressed as copies/ml. […]
Quantitative real time PCR was performed using BioRad CFX 96 with the known amounts of HIV-1 RNA as standards. The starting quantity of HIV-1 RNA in the samples treated with different compounds was determined using the standard curve and is plotted on the graph. […]

Row | Substance | solubility in water (Solubility in water) | p24 levels in culture supernatants, treated vs non-treated cells (HIV-1 89.6) | binding to HIV (HIV-89.6)
1 | Oligochitosan 10 kDa [NCD1] | soluble | significantly reduced | surprising and unexpected binding to HIV
2 | Starch azure [NCD9] | insoluble in water |  | 
